Assay results: ChEMBL document CHEMBL4033668, “Inhibitors of cytochrome P450 (CYP) 1B1” (Eur J Med Chem, 2017)

Assays:
[1] = biological target: T1, Cytochrome P450 1B1 (Homo sapiens, UniProt Q16678); assay: Inhibition of human CYP1B1 expressed in Escherichia coli DH5alpha coexpressing human NADPH-P450 reductase using 4-estradiol as substrate in presence of NADP+ by HPLC analysis
T1 sequence (Q16678 whole entry): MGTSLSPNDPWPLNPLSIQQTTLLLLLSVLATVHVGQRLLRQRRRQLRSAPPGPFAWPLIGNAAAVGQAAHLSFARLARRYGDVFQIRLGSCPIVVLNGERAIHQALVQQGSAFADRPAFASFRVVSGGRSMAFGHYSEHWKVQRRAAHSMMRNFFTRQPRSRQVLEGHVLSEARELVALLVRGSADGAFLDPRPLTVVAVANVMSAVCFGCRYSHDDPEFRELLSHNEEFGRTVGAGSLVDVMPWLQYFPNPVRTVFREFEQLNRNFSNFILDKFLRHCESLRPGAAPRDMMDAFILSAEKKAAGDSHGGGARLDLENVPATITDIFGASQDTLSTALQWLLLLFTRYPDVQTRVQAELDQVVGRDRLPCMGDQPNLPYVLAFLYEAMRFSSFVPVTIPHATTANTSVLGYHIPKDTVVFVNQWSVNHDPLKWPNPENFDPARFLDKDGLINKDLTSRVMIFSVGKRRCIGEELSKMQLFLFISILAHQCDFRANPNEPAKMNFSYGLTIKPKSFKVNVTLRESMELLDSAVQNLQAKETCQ

[2] = biological target: T1, Cytochrome P450 1B1; assay: Inhibition of human CYP1B1 expressed in Escherichia coli DH5alpha coexpressing human NADPH P450 reductase using 7-ethoxyresorufin as substrate in presence of NADP+ by spectrofluorometeric analysis
[3] = biological target: T2, Cytochrome P450 1A1 (Homo sapiens, UniProt P04798); assay: Inhibition of recombinant CYP1A1 (unknown origin) expressed in Escherichia coli DH5alphaF'Iq coexpressing human NADPH-P450 reductase using E2-d4 as substrate after 10 mins in presence of NADP+; type: ADME
T2 sequence (P04798 whole entry): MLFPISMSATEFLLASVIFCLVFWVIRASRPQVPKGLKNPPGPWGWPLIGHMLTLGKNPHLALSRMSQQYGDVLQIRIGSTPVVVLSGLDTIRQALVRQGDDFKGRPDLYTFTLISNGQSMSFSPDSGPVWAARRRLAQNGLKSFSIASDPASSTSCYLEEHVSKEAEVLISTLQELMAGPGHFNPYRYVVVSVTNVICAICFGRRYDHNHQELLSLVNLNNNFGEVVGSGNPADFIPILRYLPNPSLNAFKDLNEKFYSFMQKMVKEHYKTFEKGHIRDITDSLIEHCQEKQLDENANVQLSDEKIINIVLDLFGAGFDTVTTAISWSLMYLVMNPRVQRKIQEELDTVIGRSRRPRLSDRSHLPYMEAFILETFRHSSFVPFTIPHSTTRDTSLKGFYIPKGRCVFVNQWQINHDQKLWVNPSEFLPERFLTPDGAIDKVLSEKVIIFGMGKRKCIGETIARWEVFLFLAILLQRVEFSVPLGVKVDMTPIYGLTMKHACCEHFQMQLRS

[4] = biological target: T1, Cytochrome P450 1B1; assay: Inhibition of recombinant CYP1B1 (unknown origin) expressed in Escherichia coli DH5alphaF'Iq coexpressing human NADPH-P450 reductase using E2-d4 as substrate after 10 mins in presence of NADP+
[5] = biological target: T1, Cytochrome P450 1B1; assay: Inhibition of CYP1B1 (unknown origin) expressed in Escherichia coli DH5alpha coexpressing human NADPH-P450 reductase using 7-Ethoxyresorufin as substrate up to 6 mins in presence of NADP+ by spectrofluorometric analysis
[6] = biological target: T3, Cytochrome P450 1A2 (Homo sapiens, UniProt P05177); assay: Inhibition of CYP1A2 (unknown origin) expressed in Escherichia coli DH5alpha coexpressing human NADPH-P450 reductase using 7-Ethoxyresorufin as substrate up to 6 mins in presence of NADP+ by spectrofluorometric analysis; type: ADME
T3 sequence (P05177 whole entry): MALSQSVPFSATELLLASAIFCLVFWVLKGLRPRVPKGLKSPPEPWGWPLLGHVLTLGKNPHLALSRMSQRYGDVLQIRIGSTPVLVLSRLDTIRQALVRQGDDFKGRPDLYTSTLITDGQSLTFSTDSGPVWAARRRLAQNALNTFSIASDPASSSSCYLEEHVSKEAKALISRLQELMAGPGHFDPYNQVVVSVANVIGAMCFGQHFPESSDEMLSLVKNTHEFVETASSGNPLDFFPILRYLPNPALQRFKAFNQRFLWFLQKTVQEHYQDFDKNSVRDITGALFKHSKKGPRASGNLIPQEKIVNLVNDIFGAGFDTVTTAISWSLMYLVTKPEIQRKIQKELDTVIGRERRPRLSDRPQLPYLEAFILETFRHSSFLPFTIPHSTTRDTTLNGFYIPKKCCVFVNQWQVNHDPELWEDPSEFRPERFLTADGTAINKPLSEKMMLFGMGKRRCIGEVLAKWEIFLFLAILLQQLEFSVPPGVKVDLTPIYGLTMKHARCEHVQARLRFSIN

[7] = biological target: T2, Cytochrome P450 1A1; assay: Inhibition of CYP1A1 (unknown origin) expressed in Escherichia coli DH5alpha coexpressing human NADPH-P450 reductase using 7-Ethoxyresorufin as substrate up to 6 mins in presence of NADP+ by spectrofluorometric analysis; type: ADME
[8] = biological target: T1, Cytochrome P450 1B1; assay: Inhibition of recombinant human CYP1B1 expressed in Escherichia coli coexpressing human NADPH-cytochrome P450 reductase using 7-ethoxyresorufin as substrate by fluorescence spectrophotometric analysis
[9] = biological target: T1, Cytochrome P450 1B1; assay: (§1) Inhibition of CYP1B1 (unknown origin) expressed in Escherichia coli DH5alpha coexpressing human NADPH P450 reductase using 7-ethoxyresorufin as substrate after 2 to 6 mins in presence of NADPH by double reciprocal plot analysis
[10] = biological target: T4, CYP1B1 (Homo sapiens, UniProt Q16678); assay: as §1; settings: human, probe 7-ethoxyresorufin
T4 sequence (Q16678 whole entry): T1 sequence (Q16678 whole entry)

[11] = biological target: T1, Cytochrome P450 1B1; assay: Competitive inhibition of CYP1B1 (unknown origin) expressed in yeast microsomes using (-)benzo[a]pyrene-7R-trans-7,8-dihyrodiol (B[a]P-7,8-diol) as substrate
[12] = species on record: Homo sapiens; assay: Selectivity index, ratio of IC50 for human CYP1A1 expressed in Escherichia coli DH5alpha coexpressing human NADPH P450 reductase to IC50 for human CYP1B1 expressed in Escherichia coli DH5alpha coexpressing human NADPH P450 reductase
[13] = biological target: T1, Cytochrome P450 1B1; assay: Inhibition of CYP1B1 in […] recombinant human cytochrome P450 oxidoreductase using 7-ethoxyresorufin as substrate after 3 mins in presence of NADP+ by fluorescence assay
[14] = biological target: T3, Cytochrome P450 1A2; assay: Inhibition of […] CYP1A2 expressed in Escherichia coli DH5alpha coexpressing NADPH-P450 reductase using 7-ethoxyresorufin O-deethylation as substrate in presence of NADPH by UV absorbance analysis; type: ADME
[15] = biological target: T2, Cytochrome P450 1A1; assay: Inhibition of […] CYP1A1 expressed in Escherichia coli DH5alpha coexpressing NADPH-P450 reductase using 7-ethoxyresorufin O-deethylation as substrate in presence of NADPH by UV absorbance analysis; type: ADME
[16] = biological target: T1, Cytochrome P450 1B1; assay: Inhibition of […] CYP1B1 expressed in Escherichia coli DH5alpha coexpressing NADPH-P450 reductase using 7-ethoxyresorufin O-deethylation as substrate in presence of NADPH by UV absorbance analysis
[17] = biological target: T2, Cytochrome P450 1A1; assay: Inhibition of human CYP1A1 expressed in Escherichia coli DH5alpha coexpressing human NADPH P450 reductase using 7-ethoxyresorufin as substrate in presence of NADPH by fluorimetric analysis; type: ADME
[18] = biological target: T1, Cytochrome P450 1B1; assay: Inhibition of human CYP1B1 expressed in Escherichia coli DH5alpha coexpressing human NADPH P450 reductase using 7-ethoxyresorufin as substrate in presence of NADPH by fluorimetric analysis

COc1ccc2cc3[n+](cc2c1OC)CCc1cc(O)c(O)cc1-3
IC50 [1]: 9900 nM

O=c1cc(-c2ccccc2)oc2cc(O)ccc12 [7-HYDROXYFLAVONE]
IC50 [2]: 250 nM

COc1cc2c(cc1O)CC[C@@H]1[C@@H]2CC[C@]2(C)[C@@H](O)CC[C@@H]12 [2-METHOXYESTRADIOL]
Ki [3]: 88000 nM
Ki [4]: 36000 nM

N#C[Se]Cc1ccccc1C[Se]C#N
IC50 [5]: 130 to 270 nM
IC50 [6]: 200 to 1300 nM
IC50 [7]: 100 to 450 nM

O=C1c2ccccc2C(=O)c2c1ccc(O)c2O [ATHRAQUINONES A]
Ki [8]: 500 nM

CC#Cc1ccc(-c2ccccc2)cc1
Ki [9]: 2300 nM
kinact [10]: 0.000667 s⁻¹

COc1c2ccoc2c(OC)c2oc(=O)ccc12 [ISOPIMPINELLIN]
Ki [11]: 11000 nM

COc1c(O)ccc2c1CC[C@@H]1[C@@H]2CC[C@]2(C)[C@@H](O)CC[C@@H]12
Ki [4]: 149000 nM

CC(C)=CCC/C(C)=C/COc1c2ccoc2cc2oc(=O)ccc12 [BERGAMOTTIN]
Ki [11]: 587000 nM

O=c1c(O)c(-c2ccccc2)oc2ccccc12 [FLAVONOL]
IC50 [2]: 90 nM

N#C[Se]Cc1ccccc1 [BENZYLSELENOCYANATE]
IC50 [5]: 130 to 270 nM
IC50 [6]: 200 to 1300 nM
IC50 [7]: 100 to 450 nM

c1cc2ccc3cccc4ccc(c1)c2c34
Ratio IC50 [12]: 20.5

COc1c(O)ccc2cc3[n+](cc12)CCc1cc2c(cc1-3)OCO2 [THALIDENDINE]
IC50 [1]: 4100 nM

COc1ccc(-c2coc3cc(O)ccc3c2=O)cc1 [FORMONONETIN]
Ki [13]: 3700 nM

CC(C)=CCOc1c2ccoc2cc2oc(=O)ccc12 [ISOIMPERATORIN]
Ki [11]: 6000 nM

O=c1c2ccccc2nc2n1CCc1c-2[nH]c2ccc(O)cc12
IC50 [14]: 2570 nM
IC50 [15]: 2560 nM
IC50 [16]: 90 nM

C#Cc1cc2ccc3cccc4ccc(c1)c2c34
IC50 [17]: 151 nM
IC50 [18]: 30 nM

CC(C)=CCOc1c2occc2cc2ccc(=O)oc12 [PENTOSALEN]
Ki [11]: 1000 nM
